In patent US20140377219A1, “HIV INHIBITORS” (New york Blood Center, Inc., priority 2011, published 2014):
Where two headings read alike, the source gives them in different places.

Key:
PBMC = assay: Cytotoxicity in PBMC (XTT); assay type: cell-based; conditions: for CC50: PBMC, XTT, seven days, read-out: PBMC CC50; for % toxicity at that dose (number in parenthesis), PBMC: at the dose given as CC50 bound
Experimental: (§1) Cytotoxicity of small molecules in MT-2 cells and PBMC was measured by the XTT ((sodium 3′-(1-(phenylamino)-carbonyl)-3,4-tetrazolium-bis(4-methoxy-6-nitro)benzene-sulfonic acid hydrate)) method. Briefly, for MT-2 cells, 100 μl of a small molecule at graded concentrations was added to an equal volume of cells (10^5 cells/ml) in 96-well plates followed by incubation at 37° C. for four days, which ran parallel with the neutralization assay in MT-2 (except medium was added instead of virus). In the case of PBMC, 5×10^5 cells/ml was used and the cytotoxicity was measured after seven days. […] The percentage cytotoxicity and the CC50 values were calculated as described above.

gp120 = gp120 (Human immunodeficiency virus type 1 group M subtype B, UniProt P03375); assay: biochemical; assay type: binding, HIV-1
CD4 = CD4 (Homo sapiens, UniProt P01730); assay: Surface plasmon resonance (SPR), ligand CD4; assay type: binding
[1] = test system: CD4-dependent virus (ADA); assay type: cell-based; conditions: ADA in Cf2Th-CD4+-CCR5+ target cells, FIG. 5; read-out: IC50, inhibition of the CD4-dependent virus
MT-2 cells = assay: Cytotoxicity in MT-2 cells (XTT); assay type: cell-based; conditions: for CC50: MT-2 cells, XTT, four days, read-out: MT-2 Cells CC50
Experimental: as §1

HIV-1MN gp120 and sCD4 = biological target: T1, HIV-1MN gp120 and sCD4 (Human immunodeficiency virus type 1 group M subtype B, UniProt P05877); assay: biochemical; assay type: binding; conditions: read-out: IC50 (μM ± SD), interaction HIV-1MN gp120 and sCD4
T1 construct: recombinant gp120 from HIV-1IIIB and HIV-1MN
Experimental: (§2) The compounds were incubated at graded concentrations with sCD4 (0.25 μg/ml) in the wells of polystyrene plates containing recombinant gp120, which was captured by coating the plates with a sheep anti-gp120 antibody D7324.

HIV-1IIIB gp120 and sCD4 = biological target: T2, HIV-1IIIB gp120 and sCD4 (Human immunodeficiency virus type 1 group M subtype B, UniProt P03375); assay: biochemical; assay type: binding; conditions: read-out: IC50 (μM ± SD), interaction HIV-1IIIB gp120 and sCD4
T2 construct: recombinant gp120 from HIV-1IIIB and HIV-1MN
Experimental: as §2

[2] = test system: HIV-1 RF/L-323-12-3 (protease resistant isolate); assay: Multi-cycle neutralization assay in MT-2 cells
[3] = test system: primary HIV-1 isolate 93IN101 (subtype C, R5); assay: Neutralization assay in PBMC (p24 ELISA); conditions: read-out: IC50 (μM) ± S.D., inhibitory activity on infection
Experimental: (§3) The inhibitory activity of small molecules on infection by primary HIV-1 isolates was determined. PBMCs were isolated from the blood of healthy donors at the New York Blood Center by standard density-gradient centrifugation using Histopaque-1077 (Sigma-Aldrich). The cells were cultured at 37° C. for 2 h. Non-adherent cells were collected and resuspended at 5×10^6 cells/ml in RPMI-1640 medium containing 10% (v/v) fetal bovine serum, 5 μg/ml of phytohemagglutinin, and 100 U/ml of IL-2 (Sigma-Aldrich), followed by incubation at 37° C. for three days.

[4] = test system: laboratory-adapted HIV-1 IIIB strain; assay: microbe, parasite or virus in culture; conditions: Human immunodeficiency virus 1, IIIB, MT2, read-out: IC50 (μM) ± S.D., inhibitory activity on infection
Experimental: (§4) In brief, 1×10^4 MT-2 cells were infected with HIV-1 at 100 TCID50 (50% tissue culture infective dose) (0.01MOI) in 200 μl medium in the presence or absence of small molecules at graded concentrations and incubated overnight. The culture supernatants were then removed and replaced with fresh media. On the fourth day post-infection, 100 μl of culture supernatants were collected from each well, mixed with equal volume of 5% Triton X-100 and tested for p24 antigen by sandwich-ELISA. The percent inhibition of p24 production and IC50 values were calculated by the GraphPad Prism software (GraphPad Software Inc.).

[5] = Cytotoxicity in PBMC (XTT); assay type: cell-based; conditions: human; PBMC, XTT, seven days
Experimental: as §1

HIV-1 SF162 = assay: Neutralization assay in PBMC (p24 ELISA); conditions: read-out: IC50 (μM) ± S.D., inhibitory activity on infection
Experimental: (§5) PBMCs were isolated from the blood of healthy donors at the New York Blood Center by standard density-gradient centrifugation using Histopaque-1077 (Sigma-Aldrich). The cells were cultured at 37° C. for 2 h. Non-adherent cells were collected and resuspended at 5×10^6 cells/ml in RPMI-1640 medium containing 10% (v/v) fetal bovine serum, 5 μg/ml of phytohemagglutinin, and 100 U/ml of IL-2 (Sigma-Aldrich), followed by incubation at 37° C. for three days.

HIV-1 SF2 = assay: Multi-cycle neutralization assay in MT-2 cells
[6] = test system: primary HIV-1 isolate RU570 (clade G, R5); assay: Neutralization assay in PBMC (p24 ELISA); conditions: read-out: IC50 (μM) ± S.D., inhibitory activity on infection
Experimental: as §5

[7] = test system: primary HIV-1 isolate 93TH060 (subtype E, R5); assay: Neutralization assay in PBMC (p24 ELISA); conditions: read-out: IC50 (μM) ± S.D., inhibitory activity on infection
Experimental: as §3

[8] = test system: primary HIV-1 isolate 93BR029 (clade F, R5); assay: Neutralization assay in PBMC (p24 ELISA); conditions: read-out: IC50 (μM) ± S.D., inhibitory activity on infection
Experimental: as §5

HIV-1 89.6 = assay: Neutralization assay in PBMC (p24 ELISA); conditions: read-out: IC50 (μM) ± S.D., inhibitory activity on infection
Experimental: as §3

HIV-1 MN = assay: Multi-cycle neutralization assay in MT-2 cells
Experimental: as §4

[9] = test system: AZT-resistant (AZT-R) HIV-1 strain; assay: Multi-cycle neutralization assay in MT-2 cells
HIV-1 RF = assay: Multi-cycle neutralization assay in MT-2 cells
[10] = test system: primary HIV-1 isolate 92UG031 (subtype A, R5); assay: Neutralization assay in PBMC (p24 ELISA); conditions: read-out: IC50 (μM) ± S.D., inhibitory activity on infection
Experimental: as §3

[11] = test system: primary HIV-1 isolate BCF02 (Group 0, R5); assay: Neutralization assay in PBMC (p24 ELISA); conditions: read-out: IC50 (μM) ± S.D., inhibitory activity on infection
Experimental: as §3

HIV-1 BaL = assay: Neutralization assay in PBMC (p24 ELISA)
Experimental: as §5

[12] = Cytotoxicity in MT-2 cells (XTT); assay type: cell-based; conditions: human; MT-2 cells, XTT, four days
Experimental: as §1

[13] = test system: primary HIV-1 isolate 92US657 (subtype B, R5); assay: Neutralization assay in PBMC (p24 ELISA); conditions: read-out: IC50 (μM) ± S.D., inhibitory activity on infection
Experimental: as §5

[14] = test system: laboratory-adapted HIV-1 IIIB strain
Experimental: as §4

[15] = test system: pNL4-3 gp41 (36G) V38E, N42S (fusion resistant isolate); assay type: cell-based, HIV-1; conditions: subtype B, MT-2, X4, fusion resistant isolate, read-out: IC50 (μM) ± S.D., inhibitory activity on infection
TZM-bl cells = assay: Cytotoxicity in TZM-bl cells (XTT); assay type: cell-based
Experimental: The cytotoxicity of small molecules in TZM-bl cells was measured by a colorimetric method using XTT (sodium 3′-(1-(phenylamino)-carbonyl)-3,4-tetrazolium-bis(4-methoxy-6-nitro)benzenesulfonic acid hydrate), a light yellowish tetrazolium dye. Briefly, 100 μl of a compound at graded concentrations was added to equal volume of cells (10^5/ml) in wells of 96-well plates followed by incubation at 37° C. for 3 days and addition of XTT (PolySciences, Inc., Warrington, Pa.).

[16] = captured ELISA, sCD4 0.25 μg/ml
[17] = Human immunodeficiency virus 1, MT2, read-out: IC50 (μM) ± S.D., inhibitory activity on infection
[18] = Human immunodeficiency virus 1, PBMC
[19] = at the dose given as CC50 bound

CC1(C)CC(NC(=O)C(=O)Nc2ccc(Br)cc2)CC(C)(C)N1 [NBD-557]
CC50 (PBMC): 603 µM | Kd (gp120): 42 µM | Koff (s − 1) (gp120): 4.7 × 10−2 s − 1 | Rmax (RU) (gp120): 1.48 RU | binding to CD4 (CD4; SPR): not to CD4 | IC50 [1]: 13.4 µM | CC50 (MT-2 cells): 223 µM | IC50 (HIV-1MN gp120 and sCD4): 4.21 ± 1.1 µM | IC50 (HIV-1IIIB gp120 and sCD4): 3.08 ± 0.6 µM

CN1C(=O)[C@@H](c2cc(Cl)c(O)c(Cl)c2)NC(=O)[C@@H]2NC(=O)[C@@H](c3cc(Cl)c(O)c(Cl)c3)NC(=O)[C@H](NC(=O)C(=O)c3cc(Cl)c(O)c(Cl)c3)Cc3c[nH]c4c(cccc34)-c3cc2cc(c3O)Oc2ccc(cc2)C[C@H]1C(=O)N[C@@H](C(=O)O)c1ccc(O)cc1 [Chloropeptin]
Kd (gp120; SPR, ligand gp120): 2.5 µM | Rmax (RU) (gp120; SPR, ligand gp120): 1160 RU | koff (gp120; SPR, ligand gp120): 0.011 s⁻¹ | Kd (CD4): 5.4 µM | Rmax (RU) (CD4; SPR, ligand CD4): 76.8 RU | koff (CD4; read-out: Koff (s − 1)): 0.018 s⁻¹ | IC50 (HIV-1MN gp120 and sCD4; [16]): 0.31 ± 0.2 µM | IC50 (HIV-1IIIB gp120 and sCD4; [16]): 0.31 µM

Cc1nc(C(NC(=O)C(=O)Nc2ccc(Cl)c(F)c2)C2CCCCN2)sc1CO (stereo not shown) [Compound 27, N^1-(4-chloro-3-fluorophenyl)-N^2-((5-(hydroxymethyl)-4-methylthiazol-2-yl)(piperidin-2-yl)methyl)oxalamide.2HCl]
IC50 [2, 17]: 6.2 ± 0.9 µM | IC50 [3, 18]: ~84 µM | IC50 [4]: 4.1 ± 0.7 µM | % toxicity at that dose (number in parenthesis), PBMC (PBMC): (40%) | CC50 at 7 days [5]: > 104 µM | IC50 (HIV-1 SF162; [18]): 16.3 ± 1.7 µM | IC50 (HIV-1 SF2; [17]): 35.7 ± 2.6 µM | IC50 [6, 18]: 15.3 ± 1.7 µM | IC50 [7, 18]: 11 ± 0.5 µM | IC50 [8, 18]: 9.9 ± 0.8 µM | IC50 (HIV-1 89.6; [18]): 3.2 ± 0.7 µM | IC50 (HIV-1 MN; [17]): 18.5 ± 1.8 µM | IC50 [9, 17]: 6.5 ± 0.9 µM | IC50 (HIV-1 RF; [17]): 13.8 ± 2.3 µM | IC50 [10, 18]: 10.7 ± 0.3 µM | IC50 [11, 18]: ~84 µM | IC50 (HIV-1 BaL; Human immunodeficiency virus 1, BAL, read-out: IC50 (μM) ± S.D., inhibitory activity on infection): 43.8 ± 5 µM | CC50 at 4 days [12]: ~83 µM | IC50 [13, 18]: 12.5 ± 2.4 µM

Cc1ccc(NC(=O)C(=O)NC(c2nc(C)c(CCO)s2)C2CCCCN2)cc1F.Cl (stereo not shown) [Compound 38, N^1-(3-fluoro-4-methylphenyl)-N^2-((5-(2-hydroxyethyl)-4-methylthiazol-2-yl)(piperidin-2-yl)methyl)oxalamide.HCl]
IC50 ([2]; read-out: IC50 (μM) ± S.D., inhibitory activity on infection, HIV-1 RF/L-323-12-3, subtype B, MT-2, X4, protease resistant isolate): 10.2 ± 0.4 µM | IC50 ([3]; 93IN101, subtype C, PBMC, R5, primary isolate): > 87 µM | CC50 (PBMC): > 64 µM | % toxicity at that dose (number in parenthesis), PBMC (PBMC): 0% | IC50 (HIV-1 SF162; SF162, subtype B, PBMC, R5, laboratory strain): 16.5 ± 4 µM | IC50 (HIV-1 SF2; read-out: IC50 (μM) ± S.D., inhibitory activity on infection, SF2, subtype B, MT-2, R5X4, laboratory strain): 27.6 ± 1.7 µM | IC50 ([6]; RU570, subtype G, PBMC, R5, primary isolate): 15.8 ± 0.9 µM | IC50 ([7]; 93TH060, subtype E, PBMC, R5, primary isolate): 14.7 ± 0.7 µM | IC50 ([8]; 93BR029, subtype F, PBMC, R5, primary isolate): 8.6 ± 0.4 µM | IC50 (HIV-1 89.6; 89.6, subtype B, PBMC, R5X4, laboratory strain): 14.7 ± 1.1 µM | IC50 (HIV-1 MN; read-out: IC50 (μM) ± S.D., inhibitory activity on infection, MN, subtype B, MT-2, X4, laboratory strain): 14.9 ± 2.6 µM | IC50 ([9]; read-out: IC50 (μM) ± S.D., inhibitory activity on infection, AZT-R, subtype B, MT-2, X4, RT-resistant isolate): 14.5 ± 1.5 µM | IC50 ([14]; read-out: IC50 (μM) ± S.D., inhibitory activity on infection, IIIB, subtype B, MT-2, X4, laboratory strain): 5.3 ± 1.7 µM | IC50 ([14]; read-out: MT-2 Cells IC50 (μM ± SD), multi-cycle assay, MT-2 cells, HIV-1 IIIB): 3.7 ± 0.7 µM | IC50 (HIV-1 RF; read-out: IC50 (μM) ± S.D., inhibitory activity on infection, RF, subtype B, MT-2, R5X4, laboratory strain): 12.4 ± 1.4 µM | IC50 ([10]; 92UG031, subtype A, PBMC, R5, primary isolate): 10.1 ± 1.8 µM | IC50 ([11]; BCF02, Group 0, PBMC, R5, primary isolate): ~87 µM | IC50 (HIV-1 BaL; read-out: IC50 (μM) ± S.D., inhibitory activity on infection, BaL, subtype B, R5, laboratory strain): 30.3 ± 1.4 µM | CC50 (MT-2 cells; listed as NBD-110017): > 87 µM | CC50 (MT-2 cells): ~85 µM | % toxicity at that dose (number in parenthesis), MT-2 cells (MT-2 cells; [19]): 30% | IC50 ([13]; 92US657, subtype B, PBMC, R5, primary isolate): 6.8 ± 0.7 µM | IC50 [15]: 8.4 ± 0.4 µM | CC50 (TZM-bl cells; TZM-bl cells, XTT, 3 days, read-out: TZM-bl cells CC50 (μM ± SD)): > 85 µM | % toxicity at that dose (number in parenthesis), TZM-bl cells (TZM-bl cells; [19]): 40%
